Assays:
Type in all cases: functional
Rattus norvegicus [1] = test: Compound was evaluated for male antifertility activity by oral administration in propylene glycol to male Sprague-Dawley rats for 14 consecutive days at dose of 0.34 mmol/kg
Rattus norvegicus [2] = test: Compound was evaluated for male antifertility activity by oral administration in propylene glycol to male Sprague-Dawley rats for 14 consecutive days at dose of 0.18 mmol/kg
Rattus norvegicus [3] = test: Compound was evaluated for male antifertility activity by oral administration in propylene glycol to male Sprague-Dawley rats for 14 consecutive days at dose of 0.36 mmol/kg
Rattus norvegicus [4] = test: Compound was evaluated for male antifertility activity by oral administration in propylene glycol to male Sprague-Dawley rats for 14 consecutive days at dose of 0.68 mmol/kg
Rattus norvegicus [5] = test: Compound was evaluated for male antifertility activity by oral administration in propylene glycol to male Sprague-Dawley rats for 14 consecutive days at dose of 0.05 mmol/kg
Rattus norvegicus [6] = test: Compound was evaluated for male antifertility activity by oral administration in propylene glycol to male Sprague-Dawley rats for 14 consecutive days at dose of 0.07 mmol/kg
Rattus norvegicus [7] = test: Compound was evaluated for male antifertility activity by oral administration in propylene glycol to male Sprague-Dawley rats for 14 consecutive days at dose of 0.09 mmol/kg
Rattus norvegicus [8] = test: Compound was evaluated for male antifertility activity by oral administration in propylene glycol to male Sprague-Dawley rats for 14 consecutive days at dose of 0.30 mmol/kg
Rattus norvegicus [9] = test: Compound was evaluated for male antifertility activity by oral administration in propylene glycol to male Sprague-Dawley rats for 14 consecutive days at dose of 0.43 mmol/kg
Rattus norvegicus [10] = test: Compound was evaluated for male antifertility activity by oral administration in propylene glycol to male Sprague-Dawley rats for 14 consecutive days at dose of 0.64 mmol/kg
Rattus norvegicus [11] = test: Compound was evaluated for male antifertility activity by oral administration in propylene glycol to male Sprague-Dawley rats for 14 consecutive days at dose of 0.40 mmol/kg
Rattus norvegicus [12] = test: Compound was evaluated for male antifertility activity by oral administration in propylene glycol to male Sprague-Dawley rats for 14 consecutive days at dose of 0.04 mmol/kg

## CCCC(C)(COS(N)(=O)=O)COS(N)(=O)=O
Rattus norvegicus [1]
  No. of implants/pregnancy: 15.5
  No. of males cohabited: 4
  No. of males fertile: 4
  No. of males mated: 4
  Resorbing implants: 12.5%

## NS(=O)(=O)OCCOS(N)(=O)=O
Rattus norvegicus [2]
  No. of implants/pregnancy: 10.8
  No. of males cohabited: 10
  No. of males fertile: 8
  No. of males mated: 9
  Resorbing implants: 40%
Rattus norvegicus [3]
  No. of implants/pregnancy: 9.8
  No. of males cohabited: 8
  No. of males fertile: 1
  No. of males mated: 7
  Resorbing implants: 98.2%
Rattus norvegicus [4]
  No. of males cohabited: 5
  No. of males fertile: 0
  No. of males mated: 5

## CS(=O)(=O)OCCOS(C)(=O)=O [ETHANE DIMETHANE SULFONATE]
Rattus norvegicus [5]
  No. of implants/pregnancy: 9.9
  No. of males cohabited: 7
  No. of males fertile: 6
  No. of males mated: 7
  Resorbing implants: 35.2%
Rattus norvegicus [6]
  No. of implants/pregnancy: 12.3
  No. of males cohabited: 5
  No. of males fertile: 3
  No. of males mated: 4
  Resorbing implants: 30.3%
Rattus norvegicus [7]
  No. of males cohabited: 5
  No. of males fertile: 0
  No. of males mated: 4

## NS(=O)(=O)OCCCCCCCCCCOS(N)(=O)=O
Rattus norvegicus [8]
  No. of implants/pregnancy: 12.5
  No. of males cohabited: 5
  No. of males fertile: 4
  No. of males mated: 5
  Resorbing implants: 17.3%

## NS(=O)(=O)OCCCOS(N)(=O)=O
Rattus norvegicus [9]
  No. of implants/pregnancy: 9.3
  No. of males cohabited: 5
  No. of males fertile: 4
  No. of males mated: 5
  Resorbing implants: 73.6%
Rattus norvegicus [10]
  No. of implants/pregnancy: 6.7
  No. of males cohabited: 5
  No. of males mated: 5
  Resorbing implants: 94.4%

## CC(OS(N)(=O)=O)C(C)OS(N)(=O)=O (stereo not drawn)
Rattus norvegicus [11]
  No. of implants/pregnancy: 15
  No. of males cohabited: 4
  No. of males fertile: 3
  No. of males mated: 3
  Resorbing implants: 0%

## NS(=O)(=O)OCCCCOS(N)(=O)=O
Rattus norvegicus [12]
  No. of implants/pregnancy: 10.2
  No. of males cohabited: 5
  No. of males fertile: 5
  No. of males mated: 5
  Resorbing implants: 56%
Rattus norvegicus [11]
  No. of males cohabited: 5
  No. of males fertile: 0
  No. of males mated: 5

## NS(=O)(=O)OC1CCCCC1OS(N)(=O)=O (stereo not drawn)
Rattus norvegicus [3]
  No. of implants/pregnancy: 14
  No. of males cohabited: 5
  No. of males fertile: 5
  No. of males mated: 5
  Resorbing implants: 4.4%
